Results as given in PubChem BioAssay AID2060607 (Molecular Pharmacology Branch, DTP, NCI, 2025).

Tested on: 876862-298-R-J1-PDC complex spheroids, viability % test/control
Test: Anticancer human tumor 876862-298-R-J1-PDC patient-derived endometrial carcinoma cell line growth inhibition [CLK]
Conditions: for IC50: curve of first compound; for viability, T/C: stronger effect = lower value
Excerpt: A high-throughput screen of multi-cell type tumor spheroids was designed to identify active combinations of […] and targeted small molecules. Complex spheroids include a stromal component modeled by human endothelial cells (HUVEC) and fibroblasts modeled by human mesenchymal stem cells (MSCs). The concentration ranges selected for each drug and investigational agent were based upon clinically achievable concentrations if the clinical Cmax of the agent was known.
Compounds. The drugs and investigational agents: cirtuvivint (SM08502; NSC835563), CC-671 (NSC850746), vemurafenib (NSC761431), tapotoclax (NSC804041), sotorasib (NSC818433), adagrasib (NSC831453), MRTX-1133 (NSC836407), BAY2416964 (NSC825713), copanlisib (NSC816437), inavolisib (NSC800729), abemaciclib (NSC768073), osimertinib (NSC779217), entinostat (NSC756642), eltanexor (KPT-8602, NSC794443), venetoclax (NSC766270), ceralasertib (NSC777638), bortezomib (NSC756655), olaparib (NSC753686), talazoparib (NSC767125), alisertib (NSC759677), peposertib (NSC802822), gemcitabine (NSC613327), 5-fluorouracil (NSC19893), SN-38 (NSC673596), oxaliplatin (NSC266046), paclitaxel (NSC125973), and doxorubicin (NSC123127), were obtained from the National Cancer Institute (NCI) Developmental Therapeutics Program Chemical Repository. The FDA-approved anticancer drug set is available from the Developmental Therapeutics Program at https://dtp.cancer.gov/organization/dscb/obtaining/available plates.htm. […] The stock solutions were prepared in dimethyl sulfoxide (DMSO, Sigma-Aldrich, St. Louis, MO, cat. D2650), except for the platinum complexes which were prepared in saline (Quality Biological, Gaithersburg, MD, cat. 114-055-101), at 800-fold the tested concentration and stored at -70 degrees C prior to their use. All drugs and investigational agents were tested over a range starting from a high concentration at or near the clinical Cmax and decreasing in half-log increments. If the clinical Cmax for an agent had not been determined, the highest concentration tested was 10 microM.
Cell Culture. All cells were maintained in an incubator at 37 degrees C and 5% CO2 with 95% humidity. The PDC lines were cultured according to standard operating procedures established by the NCI PDMR. Briefly, all PDCs were thawed and cultured in Matrigel-coated flasks prepared with a working solution of 1X Ham's F-12 nutrient mix, without supplementation (Invitrogen, Waltham, MA, cat. 11765054), 100 U/mL penicillin-streptomycin (Invitrogen, cat. 15140122), and 2.5% Matrigel (Corning Inc., Corning, NY, cat. 354248) for the first three passages. The 947758-054-R-J2-PDC line was cultured in 6B/Colon 1A media, which includes advanced DMEM/F-12 (Thermo Fisher Scientific, cat. 12634028), 10 mM HEPES (Thermo Fisher Scientific, cat. 15630080), 1X GlutaMAX supplement (Thermo Fisher Scientific, cat. 35050061), 0.1 mg/mL primocin (InvivoGen, cat. ant-pm-2), 10% defined fetal bovine serum, heat inactivated (HyClone Laboratories Inc., cat. SH30070.03HI), 1.25 mM N-Acetyl-L-cysteine (Sigma-Aldrich, cat. A9165), 10 mM nicotinamide (Sigma-Aldrich, cat. N0636), 1X B-27 supplement (Thermo Fisher Scientific, cat. 17504044), 1X N-2 supplement (Thermo Fisher Scientific, cat. 17502048), and 10 microM Y-27632 dihydrochloride (Tocris Bioscience, cat. 1254). The 876862-298-R-J1-PDC was cultured in 6E media, which includes all 6B/Colon 1A media components plus 50% L-WRN conditioned media (ATCC, cat. CRL-3276), 50 ng/mL recombinant human EGF recombinant protein (hEGF; Thermo Fisher Scientific, cat. PHG0311), 10 ng/mL recombinant human fibroblast growth factor 10 (hGFG-10; PeproTech, cat. 100-26), 1 ng/mL recombinant human fibroblast growth factor 2 (hFGF-2; PeproTech, cat. 100-18B), and 1 µM prostaglandin E2 (PGE2; Tocris, cat. 2296). The 227483-062-R1-J1-PDC line was cultured in Panc media, containing all 6E components except hFGF-2, with the addition of 500 nM SB-431542 (Selleckchem, cat. S1067) and 10 nM gastrin (Tocris, cat. 3006). […]

[1] = second compound 0.0316 µM, first compound 0.0316 µM
[2] = second compound 0.0316 µM, first compound 0.1 µM
[3] = second compound 0.0316 µM, first compound 0.316 µM
[4] = second compound 0.0316 µM, first compound 1 µM
[5] = second compound 0.0316 µM, first compound 3.16 µM
[6] = second compound 0.0316 µM, first compound 10 µM
[7] = second compound 0.1 µM, first compound 0.0316 µM
[8] = second compound 0.1 µM, first compound 0.1 µM
[9] = second compound 0.1 µM, first compound 0.316 µM
[10] = second compound 0.1 µM, first compound 1 µM
[11] = second compound 0.1 µM, first compound 3.16 µM
[12] = second compound 0.1 µM, first compound 10 µM
[13] = second compound 0.316 µM, first compound 0.0316 µM
[14] = second compound 0.316 µM, first compound 0.1 µM
[15] = second compound 0.316 µM, first compound 0.316 µM
[16] = second compound 0.316 µM, first compound 1 µM
[17] = second compound 0.316 µM, first compound 3.16 µM
[18] = second compound 0.316 µM, first compound 10 µM
[19] = second compound 1 µM, first compound 0.0316 µM
[20] = second compound 1 µM, first compound 0.1 µM
[21] = second compound 1 µM, first compound 0.316 µM
[22] = second compound 1 µM, first compound 1 µM
[23] = second compound 1 µM, first compound 3.16 µM
[24] = second compound 1 µM, first compound 10 µM
[25] = second compound 3.16 µM, first compound 0.0316 µM
[26] = second compound 3.16 µM, first compound 0.1 µM
[27] = second compound 3.16 µM, first compound 0.316 µM
[28] = second compound 3.16 µM, first compound 1 µM
[29] = second compound 3.16 µM, first compound 3.16 µM
[30] = second compound 3.16 µM, first compound 10 µM
[31] = second compound 10 µM, first compound 0.0316 µM
[32] = second compound 10 µM, first compound 0.1 µM
[33] = second compound 10 µM, first compound 0.316 µM
[34] = second compound 10 µM, first compound 1 µM
[35] = second compound 10 µM, first compound 3.16 µM
[36] = second compound 10 µM, first compound 10 µM
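Also: spheroids exposed to drugs for 7 days before readout.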
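For viability, T/C in this document: 100% = DMSO vehicle control wells.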

How did the IC50 (second compound 0.0316 µM) turn out when C=C(F)C(=O)N1CCN(c2nc(OCC3CCCN3C)nc3c2CCN(c2cccc4cccc(Cl)c24)C3)CC1CC#N (centres undefined) + CN1CCN(c2cc(C(=O)Nc3cc4cc(-c5cnn(C)c5)ccc4cn3)ccn2)CC1 was run?
The IC50 was 4840 nM.

And the IC50 (second compound 0.1 µM)?
The IC50 was 3190 nM.

What about the IC50 (second compound 0.316 µM) of the same molecule?
The IC50 was less than 31.6 nM.

What about the IC50 (second compound 1 µM) of the same molecule?
Its IC50 is less than 31.6 nM.

What about the IC50 (second compound 3.16 µM) of the same molecule?
The IC50 was less than 31.6 nM.

And the IC50 (second compound 10 µM)?
The IC50 was less than 31.6 nM.

And the viability, T/C [1]?
Its viability, T/C is 82.8%.

What about the viability, T/C [2] of the same molecule?
The viability, T/C was 93.9%.

What about the viability, T/C [3] of the same molecule?
Its viability, T/C is 82.3%.

And the viability, T/C [4]?
Its viability, T/C is 95.2%.

What about the viability, T/C [5] of the same molecule?
Its viability, T/C is 73.6%.

What about the viability, T/C [6] of the same molecule?
The viability, T/C was 9.9%.

And the viability, T/C [7]?
Its viability, T/C is 47.9%.

What about the viability, T/C [8] of the same molecule?
Its viability, T/C is 51.7%.

And the viability, T/C [9]?
Its viability, T/C is 50.4%.

What about the viability, T/C [10] of the same molecule?
The viability, T/C was 51.6%.

And the viability, T/C [11]?
Its viability, T/C is 50.4%.

And the viability, T/C [12]?
The viability, T/C was 4.78%.

And the viability, T/C [13]?
Its viability, T/C is 4.71%.

And the viability, T/C [14]?
Its viability, T/C is 4.05%.

And the viability, T/C [15]?
Its viability, T/C is 6.86%.

What about the viability, T/C [16] of the same molecule?
The viability, T/C was 5.08%.

What about the viability, T/C [17] of the same molecule?
Its viability, T/C is 3.01%.

And the viability, T/C [18]?
The viability, T/C was 0.46%.

What about the viability, T/C [19] of the same molecule?
Its viability, T/C is 1.31%.

What about the viability, T/C [20] of the same molecule?
Its viability, T/C is 1.26%.

What about the viability, T/C [21] of the same molecule?
The viability, T/C was 0.91%.

What about the viability, T/C [22] of the same molecule?
The viability, T/C was 1.47%.

What about the viability, T/C [23] of the same molecule?
The viability, T/C was 1.43%.

And the viability, T/C [24]?
Its viability, T/C is 0.85%.

What about the viability, T/C [25] of the same molecule?
The viability, T/C was 1.01%.

What about the viability, T/C [26] of the same molecule?
The viability, T/C was 1.11%.

And the viability, T/C [27]?
The viability, T/C was 2.16%.

What about the viability, T/C [28] of the same molecule?
The viability, T/C was 1.83%.

What about the viability, T/C [29] of the same molecule?
Its viability, T/C is 1.72%.

What about the viability, T/C [30] of the same molecule?
The viability, T/C was 0.4%.

And the viability, T/C [31]?
Its viability, T/C is 0.93%.

And the viability, T/C [32]?
Its viability, T/C is 1.28%.

And the viability, T/C [33]?
The viability, T/C was 2.22%.

What about the viability, T/C [34] of the same molecule?
The viability, T/C was 1.62%.

What about the viability, T/C [35] of the same molecule?
The viability, T/C was 1.63%.

And the viability, T/C [36]?
Its viability, T/C is 1.23%.

Which results are given for C=CC(=O)N1CCN(c2nc(=O)n(-c3c(C)ccnc3C(C)C)c3nc(-c4c(O)cccc4F)c(F)cc23)C(C)C1 (centres undefined) + CN1CCN(c2cc(C(=O)Nc3cc4cc(-c5cnn(C)c5)ccc4cn3)ccn2)CC1?
IC50 (second compound 0.0316 µM): > 10000 nM; IC50 (second compound 0.1 µM): 1720 nM; IC50 (second compound 0.316 µM): < 31.6 nM; IC50 (second compound 1 µM): < 31.6 nM; IC50 (second compound 3.16 µM): < 31.6 nM; IC50 (second compound 10 µM): < 31.6 nM; viability, T/C [1]: 80.7%; viability, T/C [2]: 90.6%; viability, T/C [3]: 91%; viability, T/C [4]: 96.3%; viability, T/C [5]: 99%; viability, T/C [6]: 58.4%; viability, T/C [7]: 57.9%; viability, T/C [8]: 47.9%; viability, T/C [9]: 49.9%; viability, T/C [10]: 57.7%; viability, T/C [11]: 45.7%; viability, T/C [12]: 30.3%; viability, T/C [13]: 5.51%; viability, T/C [14]: 4.35%; viability, T/C [15]: 4.39%; viability, T/C [16]: 4.13%; viability, T/C [17]: 4.65%; viability, T/C [18]: 2.26%; viability, T/C [19]: 0.86%; viability, T/C [20]: 1.32%; viability, T/C [21]: 1.28%; viability, T/C [22]: 2.28%; viability, T/C [23]: 4.17%; viability, T/C [24]: 2.16%; viability, T/C [25]: 1.53%; viability, T/C [26]: 2.07%; viability, T/C [27]: 2.2%; viability, T/C [28]: 2.58%; viability, T/C [29]: 3.3%; viability, T/C [30]: 2.74%; viability, T/C [31]: 0.76%; viability, T/C [32]: 1.59%; viability, T/C [33]: 1.62%; viability, T/C [34]: 2.38%; viability, T/C [35]: 2.32%; viability, T/C [36]: 2.42%
